According to PubChem BioAssay AID2305 (GlaxoSmithKline (GSK), 2010):

The molecules below were run on P. falciparum 3D7 growth, pLDH absorbance (assay: blood-stage malaria parasite growth potency – strain 3D7, dose response (AID 2305)).

Q: How did the IC50 turn out when `CN(Cc1ccc(-c2ccc(C(F)(F)F)cc2)cc1)C(=O)Cn1c(CCc2cccc(F)c2F)cc(=O)c2ccc(OCC3CCCN3C)cc21` (stereo not drawn) was run?
A: 1070 nM

Q: How did the IC50 turn out when `CN(C)c1ccc(CN2CCC(CNC(=O)c3cc(-c4ccccc4F)cs3)C2)cc1` (stereo not drawn) was run?
A: 910 nM

Q: With `Cc1[nH]c(C)c(-c2ccc(OCCCCSc3ccncc3)cc2)c(=O)c1Br` as the molecule, how does the IC50 read?
A: 250 nM

Q: How did the IC50 turn out when `Cc1cc(NC(=O)Nc2ccc(I)c(OCCN(C)C)c2)ccc1Br` was run?
A: 620 nM

Q: Which IC50 does the source give for `O=C(Nc1ccccc1)Nc1cccc(-c2cc(CNCCc3ccccc3)sc2-c2ccncc2)c1` here?
A: 600 nM

Q: How did the IC50 turn out when `Cc1cc(=O)[nH]c(-n2nc(C)cc2NC(=O)C(c2ccccc2)c2ccccc2)n1` was run?
A: 840 nM

Q: `CC(=O)c1cccc(NC(=O)C2c3ccccc3C(=O)N(CC(C)C)C2c2cccs2)c1` (stereo not drawn) was tested. Which IC50 did it give?
A: 590 nM

Q: How did the IC50 turn out when `CCOc1cccc(C(=O)Nc2nonc2-c2ccc(OC)c(OC)c2)c1` was run?
A: 1020 nM

Q: Which IC50 does the source give for `CN1CCN(CCc2ccc3nc(-c4csc(Cc5cc(Cl)ccc5OCc5ccccc5)n4)[nH]c3c2)CC1` here?
A: 750 nM

Q: With `CCc1c(CCNCCCCCCNCCc2ccc(OC)cc2)ccc(OC)c1OC` as the molecule, how does the IC50 read?
A: 870 nM

Q: For `C=CCN1C(=O)c2[nH]nc(-c3cc(C)c(C)cc3O)c2C1c1cccc(Br)c1` (stereo not drawn), which IC50 is on record?
A: 1160 nM

Q: For `NC(N)=Nc1nc(-c2cccc(NC(=O)NCc3ccc(OC(F)(F)F)cc3)c2)cs1`, which IC50 is on record?
A: 700 nM

Q: `Cc1ccc(Sc2ccc(NC(=O)CN3CCN(C(=O)c4ccco4)CC3)cc2)cc1C` was tested. Which IC50 did it give?
A: 910 nM

Q: How did the IC50 turn out when `Cc1ccc2c(Cc3cnc(N)nc3N)cc(C)c(N)c2n1` was run?
A: 1420 nM

Q: Which IC50 does the source give for `NC1CCN(CCc2ccc(NS(=O)(=O)c3cccc4ccccc34)cc2)CC1` here?
A: 1700 nM

Q: Which IC50 does the source give for `NC(=O)c1ccccc1OCC(=O)Nc1ccc(-c2cccc(-c3nc4ccc(C(F)(F)F)cc4[nH]3)c2)cc1` here?
A: 980 nM

Q: Which IC50 does the source give for `CC1CC(NCCCNc2cc(=O)c3ccccc3[nH]2)c2c(Cl)c(Cl)cc(Cl)c21` (stereo not drawn) here?
A: 980 nM

Q: How did the IC50 turn out when `CC(C)COc1ccc(Cl)cc1Cc1nc(-c2nc3ccc(CN4CCCCC4)cc3[nH]2)co1` was run?
A: 740 nM

Q: For `CCCCOc1cc(C)nc2ccc(NC(=O)COCC(=O)Nc3ccc4nc(C)cc(OCCCC)c4c3)cc12`, which IC50 is on record?
A: 1000 nM

Q: Which IC50 does the source give for `Cc1ccc(CNC(=O)[C@H](Cc2ccccc2)Nc2ccnc(NCC3CCCCC3)n2)cc1` here?
A: 1190 nM

Q: With `Cc1noc(C)c1-c1cccc(CNCc2cccc(-c3cccc(-c4nc5ccc(C(F)(F)F)cc5[nH]4)c3)c2)c1` as the molecule, how does the IC50 read?
A: 460 nM

Q: `Fc1ccc(NC(=S)NN=Cc2ccccn2)cc1` was tested. Which IC50 did it give?
A: 770 nM

Q: How did the IC50 turn out when `O=S(=O)(c1cccc2cccnc12)N1CCN(C2CCCCC2)CC1` was run?
A: 760 nM

Q: Which IC50 does the source give for `ON=C1CCc2cc(-c3cc(-c4ccc(OC5CCNCC5)cc4)oc3-c3ccncc3)ccc21` here?
A: 160 nM

Q: For `Clc1ccc(OCc2ccccc2)c(-c2nc(-c3nc4ccc(Cl)cc4[nH]3)cs2)c1`, which IC50 is on record?
A: 670 nM

Q: `N#Cc1ccc(CN2CCC(Oc3ccc(NC(=O)c4cccs4)cc3Cl)CC2)cc1` was tested. Which IC50 did it give?
A: 580 nM

Q: With `Cc1ccc(C)c2sc(N(CCCn3ccnc3)C(=O)C=Cc3cccs3)nc12` as the molecule, how does the IC50 read?
A: 1060 nM

Q: How did the IC50 turn out when `O=C(O)c1cccc2c(-c3ccncc3)cccc12` was run?
A: 940 nM

Q: `c1ccc2[nH]c(-c3ccc(-c4ccc(CN5CCC(N6CCCCC6)CC5)cc4)s3)nc2c1` was tested. Which IC50 did it give?
A: 150 nM

Q: How did the IC50 turn out when `CN1CCc2ccc(NC(=O)Nc3ccc(Cl)c(Cl)c3)cc2C1` was run?
A: 720 nM

Q: Which IC50 does the source give for `OCCc1ccc(Nc2nccc(-c3nnc4ccccn34)n2)cc1` here?
A: 900 nM

Q: `Fc1ccc2nc(-c3cccc(-c4ccc(CNCCc5ccncc5)cc4)c3)[nH]c2c1` was tested. Which IC50 did it give?
A: 110 nM

Q: `COc1ccc(Cl)cc1N1CCN(CCCNC(=O)c2ccc(-c3nc4ccc(C(F)(F)F)cc4[nH]3)c(C)c2)CC1` was tested. Which IC50 did it give?
A: 760 nM

Q: Which IC50 does the source give for `CN1CCC(C(=O)N(Cc2ccc(-c3ccc(CNCCc4ccc(S(C)(=O)=O)cc4)cn3)cc2)Cc2ccc3c(c2)OCO3)CC1` here?
A: 1000 nM

Q: How did the IC50 turn out when `NC(=S)Cc1ccc2c(c1)OCO2` was run?
A: 280 nM

Q: Which IC50 does the source give for `COc1ccc2nccc([C@@H](O)CN3CCC(NCc4ccc5cccc(O)c5n4)CC3)c2c1` here?
A: 1130 nM

Q: `COc1c(C2=CCN(CCCCNC(=O)c3ccc(-c4ccc(C#N)cc4)cc3)CC2)ccc2c1CCCC2` was tested. Which IC50 did it give?
A: 910 nM

Q: With `COC(=O)c1cccc(CNCc2cccc(-c3ccc(-c4nc5ccccc5[nH]4)cc3)c2)c1` as the molecule, how does the IC50 read?
A: 350 nM

Q: `O=C(Cn1c(CCc2cccc(F)c2F)cc(=O)c2ccccc21)N(Cc1ccc(-c2ccc(C(F)(F)F)cc2)cc1)C1CCN(CCO)CC1` was tested. Which IC50 did it give?
A: 1320 nM

Q: `Fc1ccc(-c2cc3ncnc(N4CCN(CCN5CCCC5)CC4)c3s2)cc1` was tested. Which IC50 did it give?
A: 740 nM

Q: Which IC50 does the source give for `COC(C(=O)OCCC1CCCN1C)(c1ccccc1)C1CCCCC1` (stereo not drawn) here?
A: 710 nM

Q: How did the IC50 turn out when `CNCCNCc1cccc(-c2cccc(-c3nc4c(C)cccc4[nH]3)c2)c1` was run?
A: 770 nM

Q: With `CCCCN(CCCC)CCCN(CCCN(CCCC)CCCC)c1cc(C)nc(Nc2ccc(Br)cc2)n1` as the molecule, how does the IC50 read?
A: 130 nM

Q: With `Oc1ccc(CCNc2nc(NCCCOc3cc(CN4CCCCC4)ccc3F)nc(N3CCNCC3)n2)cc1` as the molecule, how does the IC50 read?
A: 1760 nM

Q: For `Cc1c(O)cccc1Nc1ccnc2ccc(C(F)(F)F)cc12`, which IC50 is on record?
A: 30 nM

Q: Which IC50 does the source give for `Clc1cc2c(Nc3ccc(Oc4ccccc4)cc3)ccnc2cc1-c1ccc(CNCCN2CCOCC2)o1` here?
A: 710 nM

Q: How did the IC50 turn out when `COc1ccccc1C1CCN(C2CCC(NC(=O)/C=C/c3ccc(C(F)(F)F)cc3F)CC2)CC1` (stereo not drawn) was run?
A: 990 nM

Q: For `CCCCCCc1cc(Oc2c(I)cc(C[C@H](N)C(=O)O)cc2I)ccc1O`, which IC50 is on record?
A: 910 nM
